Test results taken from US20250042886A1, “BIS(HETERO)ARYL THIOETHER OXADIAZINES AS FUNGICIDAL COMPOUNDS” (Bayer Aktiengesellschaft, priority 2021, published 2025).

Key:
Sphaerotheca fuliginea = assay: In vivo preventive test on Sphaerotheca fuliginea (powdery mildew on cucurbits); conditions: Podosphaera fuliginea, 192 h; 500 ppm of active ingredient, sprayed on young gherkin plants 24 h before inoculation; evaluated 8 days after inoculation; read-out: efficacy
Method: B-3. […] The active ingredients were made soluble and homogenized in a mixture of Dimethyl sulfoxide/Acetone//Tween® 80 and then diluted in water to the desired concentration. The young plants of gherkin were treated by spraying the active ingredient prepared as described above. Control plants were treated only with an aqueous solution of Acetone/Dimethyl sulfoxide/Tween® 80. After 24 hours, the plants were contaminated by spraying the leaves with an aqueous suspension of Sphaerotheca fuliginea spores.

Botrytis cinerea = Botrytis cinerea in vitro cell test; type: cell-based; conditions: 144 h, liquid culture, 6 days incubation, read-out: efficacy (inhibition of fungal growth); for inhibition at 20 ppm: 20 ppm of active ingredient
Outline: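 Compounds from DMSO stocks added at a range of concentrations to a defined mineral-salt/sucrose liquid medium inoculated with B. cinerea spores. After 6 days' incubation, mycelium growth was read by absorbance; inhibition of germination and growth was calculated against fungicide-free control wells.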

Alternaria brassicae = assay: In vivo preventive test on Alternaria brassicae (leaf spot on radish or cabbage); conditions: 500 ppm of active ingredient, sprayed on young radish or cabbage plants 24 h before inoculation, evaluated 3 to 4 days after inoculation, read-out: efficacy
Outline: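 Young radish or cabbage plants sprayed preventively with compound formulated in DMSO/acetone/Tween 80 and diluted in water; vehicle-treated plants as controls. Leaves inoculated by spraying an aqueous Alternaria brassicae spore suspension 24 h after treatment.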

Fusarium culmorum = Fusarium culmorum in vitro cell test; type: cell-based; conditions: 120 h, liquid culture, 5 days incubation, read-out: efficacy (inhibition of fungal growth); for inhibition at 20 ppm: 20 ppm of active ingredient
Outline: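 Spores in liquid mineral-salts/saccharose medium exposed to compounds (DMSO ≤1% final) for 5 days. Mycelium growth measured spectrometrically, with inhibition derived from absorbance relative to fungicide-free control wells.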

Row | Compound | pest or weed control at 500 ppm (Sphaerotheca fuliginea) [%] | inhibition at 20 ppm (Botrytis cinerea) [%] | pest or weed control at 500 ppm (Alternaria brassicae) [%] | inhibition at 20 ppm (Fusarium culmorum) [%] | inhibition at 50 µM (Botrytis cinerea; 50 μMol/l of active ingredient) [%] | inhibition at 50 µM (Fusarium culmorum; 50 μMol/l of active ingredient) [%]
1 | Cc1ccc(C[C@@H]2CON=C(c3nc(C)ncc3Sc3cccc(Cl)c3)N2)c(C)c1 (racemic) [Compound I-031] | 90 to 100 | 90 to 100 | 90 to 100 | 90 to 100 | – | –
2 | Cc1cccc(Sc2cnc3ccccc3c2C2=NOC[C@H](Cc3ccc(C)cc3C)N2)c1 (racemic) [Compound I-023] | – | 90 to 100 | 90 to 100 | 90 to 100 | – | –
3 | Cc1cccc(Sc2cnc(C)nc2C2=NOC[C@@H](Cc3ccc(C)cc3C)N2)c1 (racemic) [Compound I-032] | 90 to 100 | 90 to 100 | 90 to 100 | 80 to 89 | – | –
4 | Cc1ccc(C[C@@H]2CON=C(c3c(Sc4cccc(C(F)(F)F)c4)nnc4ccccc34)N2)c(C)c1 (racemic) [Compound I-029] | – | 90 to 100 | 80 to 89 | 80 to 89 | – | –
5 | FC(F)(F)c1cccc(Sc2cnc(Cl)cc2C2=NOC[C@@H](Cc3ccc(Cl)cc3Cl)N2)c1 (racemic) [Compound I-022] | 90 to 100 | 90 to 100 | 80 to 89 | 90 to 100 | – | –
6 | Cc1cc([C@@H]2CON=C(c3c(Sc4cccc(Cl)c4)nnc(C)c3C)N2)c(C)s1 (racemic) [Compound I-100] | – | – | 90 to 100 | – | 90 to 100 | 90 to 100
7 | Cc1ccc(C[C@@H]2CON=C(c3nc(C)ncc3Sc3cccc(Cl)c3)N2)c(Cl)c1 (racemic) [Compound I-033] | 90 to 100 | 90 to 100 | 80 to 89 | 90 to 100 | – | –
8 | Cc1ccc(C[C@H]2CON=C(c3c(Sc4cccc(C(F)(F)F)c4)cnc4ccccc34)N2)c(C)c1 (racemic) [Compound I-030] | – | 90 to 100 | 70 to 79 | 90 to 100 | – | –
